This is an account of results in patent publication US11312712B2, “Azabenzimidazoles and their use as AMPA receptor modulators” (Janssen Pharmaceutica NV, priority 2015, dated 2022).

GluA1o-γ8 (GRIA1o-CACNG8 fusion construct), sequence (P42261 other isoform, or with tags, fused parts or gaps): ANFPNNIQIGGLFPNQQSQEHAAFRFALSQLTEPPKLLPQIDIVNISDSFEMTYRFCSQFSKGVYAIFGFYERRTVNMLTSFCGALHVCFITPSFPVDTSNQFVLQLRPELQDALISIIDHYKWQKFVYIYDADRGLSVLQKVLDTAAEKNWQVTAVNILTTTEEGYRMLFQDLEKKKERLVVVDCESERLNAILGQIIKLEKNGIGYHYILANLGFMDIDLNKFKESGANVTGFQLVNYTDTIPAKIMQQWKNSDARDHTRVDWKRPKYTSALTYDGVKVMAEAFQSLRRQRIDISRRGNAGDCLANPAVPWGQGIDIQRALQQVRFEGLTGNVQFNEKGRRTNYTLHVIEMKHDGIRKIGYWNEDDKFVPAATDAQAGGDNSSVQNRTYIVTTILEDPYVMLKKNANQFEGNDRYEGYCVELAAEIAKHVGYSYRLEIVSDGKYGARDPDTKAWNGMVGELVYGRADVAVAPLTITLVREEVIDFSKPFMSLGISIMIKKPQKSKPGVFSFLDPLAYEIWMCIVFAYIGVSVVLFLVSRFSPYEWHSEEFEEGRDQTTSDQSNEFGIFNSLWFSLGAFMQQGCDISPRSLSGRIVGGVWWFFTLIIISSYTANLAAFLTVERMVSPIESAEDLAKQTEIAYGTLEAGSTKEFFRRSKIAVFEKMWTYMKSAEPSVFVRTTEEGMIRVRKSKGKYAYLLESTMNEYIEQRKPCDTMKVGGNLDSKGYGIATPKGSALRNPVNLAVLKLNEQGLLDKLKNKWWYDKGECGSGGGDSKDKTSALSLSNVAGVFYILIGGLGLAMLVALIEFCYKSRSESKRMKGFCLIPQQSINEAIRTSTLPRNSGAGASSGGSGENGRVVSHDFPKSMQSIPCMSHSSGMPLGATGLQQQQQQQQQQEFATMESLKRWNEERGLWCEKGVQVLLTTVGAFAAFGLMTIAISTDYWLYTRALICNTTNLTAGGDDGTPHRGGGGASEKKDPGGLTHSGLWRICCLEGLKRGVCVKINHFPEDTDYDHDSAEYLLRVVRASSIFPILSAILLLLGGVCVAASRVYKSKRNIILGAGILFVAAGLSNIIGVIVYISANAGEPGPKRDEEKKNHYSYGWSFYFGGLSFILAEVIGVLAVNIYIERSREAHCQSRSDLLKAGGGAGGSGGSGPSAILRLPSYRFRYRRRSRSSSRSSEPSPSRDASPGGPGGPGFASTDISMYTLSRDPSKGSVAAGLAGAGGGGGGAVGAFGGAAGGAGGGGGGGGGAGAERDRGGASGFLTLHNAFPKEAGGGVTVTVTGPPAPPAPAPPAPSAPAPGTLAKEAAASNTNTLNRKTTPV

The assay concerns the target GluA1o-γ8 (GRIA1o-CACNG8 fusion construct) (Homo sapiens (Human), UniProt P42261+Q8WXS5). Briefly: Calcium flux assay (FLIPR), inhibition of TARP γ8 dependent AMPA receptor activity. Type of assay: cell-based. The following applies: GluA1o-γ8 (GRIA1o-CACNG8 fusion) in HEK293 cells, calcium flux after 15 μM glutamate. An excerpt: This assay was used to test compounds for their ability to inhibit TARP γ8 dependent AMPA receptor activity. The AMPA receptor is a non-selective cation channel activated by glutamate. Ionotropic glutamate receptors normally desensitize too rapidly to allow detectable calcium influx in a FLIPR assay (Strange et al. (2006). “Functional characterisation of homomeric ionotropic glutamate receptors GluR1-GluR6 in a fluorescence-based high throughput screening assay.” Comb Chem High Throughput Screen 9(2): 147-158). But, this desensitization is incomplete, and a substantial steady-state current remains in the sustained presence of glutamate (Cho et al. (2007). “Two families of TARP isoforms that have distinct effects on the kinetic properties of AMPA receptors and synaptic currents.” Neuron 55(6): 890-904).
An in vitro assay was used to determine the potency of test compounds as inhibitors of the glutamate response of the channel formed by GluA1o-γ8. To ensure a 1:1 stoichiometry of GluA1o and γ8 subunits in the expressed channel, a fusion of the cDNAs for GRIA1o and CACNG8 was used. Following Shi et al (2009) “The stoichiometry of AMPA receptors and TARPs varies by neuronal cell type.” Neuron 62(5): 633-640), the C-terminus of the cDNA for GRIA1o was fused to the N-terminus of the cDNA for γ8. The linker sequence was QQQQQQQQQQEFAT. Channels expressed with this construct appear to have similar properties to channels formed by co-expression of GRIA1o with an excess of CACNG8 (Shi et al. 2009). A clonal cell line in HEK293 cells stably expressing this construct, with a geneticin selection marker, was generated for use in this assay.
Cell expressing the GRIA1o-CACNG8 fusion construct were grown in a monolayer in 96- or 384-well microtiter plates. They were washed with assay buffer (135 mM NaCl, 4 mM KCl, 3 mM CaCl2, 1 mM MgCl2, 5 mM glucose, 10 mM HEPES, pH 7.4, 300 mOs) using a Biotek EL405 plate washer. The cells were then loaded with a calcium-sensitive dye (Calcium-5 or Calcium-6, Molecular Devices) and the test compounds at a range of concentrations. Calcium flux following the addition of 15 μM glutamate was monitored using a Molecular Devices FLIPR Tetra. The fluorescence in each well was normalized to the fluorescence of negative and positive control wells. The negative control wells had no added compounds, and the positive control wells had been incubated with 10 μM CP465022 (a non-subtype-selective AMPA receptor antagonist) (Lazzaro et al. (2002). “Functional characterization of CP-465,022, a selective, noncompetitive AMPA receptor antagonist.” Neuropharmacology 42(2): 143-153). The responses to glutamate as functions of the test compound concentrations were fitted to a four-parameter logistic function. The fitted parameter corresponding to the midpoint was taken to be the potency of inhibition of the compound. The data in Table 4 below illustrates the observed potentcy for the compounds described herein. pIC50 refers to the negative log of the IC50 in molar.
(In general: A change in cytosolic calcium serves as a functional read-out for many receptors and channels.)
With `O=C1Cc2cc(-n3c(C4CCOC4)nc4ccc(C(F)(F)F)nc43)ccc2N1` (racemic) [Example 52, (racemic)-5-[2-Tetrahydrofuran-3-yl-5-(trifluoromethyl)imidazo[4,5-b]pyridin-3-yl]indolin-2-one], the IC50 was 20 nM.
On to `CCC(C)c1nc2ccc(C(F)(F)F)nc2n1-c1ccc2c(c1)CC(=O)N2` (racemic) [Example 96, (racemic)-5-[2-sec-Butyl-5-(trifluoromethyl)imidazo[4,5-b]pyridin-3-yl]indolin-2-one], for which the IC50 is 6.31 nM.
Then `FC(F)(F)c1ccc2nc(C3CCOC3)n(-c3ccc4[nH]ncc4c3)c2n1` (racemic) [Example 100, (racemic)-3-(1H-Indazol-5-yl)-2-tetrahydrofuran-3-yl-5-(trifluoromethyl)imidazo[4,5-b]pyridine], with 251 nM; and `CCC(C)c1nc2ccc(C(F)(F)F)nc2n1-c1ccc2[nH]ncc2c1` (racemic) [Example 102, (racemic)-3-(1H-Indazol-5-yl)-2-sec-butyl-5-(trifluoromethyl)imidazo[4,5-b]pyridine], with 10 nM; and `CC(F)c1nc2ccc(C(F)(F)F)nc2n1-c1ccc2[nH]ncc2c1` (racemic) [Example 117, (R/S)-2-(1-fluoroethyl)-3-(1H-indazol-5-yl)-5-(trifluoromethyl)imidazo[4,5-b]pyridine], with 5.01 nM.
Regarding `O=c1[nH]c2ccc(-n3c(C4CCOC4)nc4ccc(C(F)(F)F)nc43)cc2o1` (racemic) [Example 161, (R/S)-6-[2-Tetrahydrofuran-3-yl-5-(trifluoromethyl)imidazo[4,5-b]pyridin-3-yl]-3H-1,3-benzoxazol-2-one], the IC50 was 316 nM.
Then `O=C1Cc2cc(-n3c(C4CCOC4)cc4ccc(C(F)(F)F)nc43)cc(F)c2N1` (racemic) [Example 365, (RS)-7-Fluoro-5-[2-tetrahydrofuran-3-yl-6-(trifluoromethyl)pyrrolo[2,3-b]pyridin-1-yl]indolin-2-one], with 0.2 nM; and `COC(C)c1cc2cccnc2n1-c1cc(C)c2c(c1)CC(=O)N2` (racemic) [Example 368, (RS)-5-[2-(1-Methoxyethyl)pyrrolo[2,3-b]pyridin-1-yl]-7-methyl-indolin-2-one], with 31.6 nM.
Take `Cc1cc(-n2c([C@@H](C)F)nc3ccc(C(F)(F)F)nc32)cc2cn[nH]c12` (single isomer, unassigned) [Example 256, (*R)-2-(1-Fluoroethyl)-3-(7-methyl-1H-indazol-5-yl)-5-(trifluoromethyl)imidazo[4,5-b]pyridine]: the IC50 is 0.0794 nM.
The value for `Cc1cc(-n2c([C@H](C)F)nc3ccc(C(F)(F)F)nc32)cc2cn[nH]c12` (single isomer, unassigned) [Example 257, (*S)-2-(1-Fluoroethyl)-3-(7-methyl-1H-indazol-5-yl)-5-(trifluoromethyl)imidazo[4,5-b]pyridine] was 0.0501 nM; that for `CC[C@@H](C)c1nc2ccc(C(F)(F)F)nc2n1-c1cc(Cl)c2[nH]ncc2c1` (single isomer, unassigned) [Example 404, (*R)-2-(sec-Butyl)-3-(7-chloro-1H-indazol-5-yl)-5-(trifluoromethyl)-3H-imidazo[4,5-b]pyridine] was 0.1 nM.
For the molecule `CC[C@H](C)c1nc2ccc(C(F)(F)F)nc2n1-c1cc(Cl)c2[nH]ncc2c1` (single isomer, unassigned) [Example 405, (*S)-2-(sec-Butyl)-3-(7-chloro-1H-indazol-5-yl)-5-(trifluoromethyl)-3H-imidazo[4,5-b]pyridine], the IC50 was 0.0631 nM.
Then `CC[C@@H](C)c1nc2ccc(C(F)(F)F)nc2n1-c1cc(C)c2[nH]ncc2c1` (single isomer, unassigned) [Example 406, (*R)-2-(sec-Butyl)-3-(7-methyl-1H-indazol-5-yl)-5-(trifluoromethyl)-3H-imidazo[4,5-b]pyridine], with 0.126 nM; and `CC[C@H](C)c1nc2ccc(C(F)(F)F)nc2n1-c1cc(C)c2[nH]ncc2c1` (single isomer, unassigned) [Example 407, (*S)-2-(sec-Butyl)-3-(7-methyl-1H-indazol-5-yl)-5-(trifluoromethyl)-3H-imidazo[4,5-b]pyridine], with 0.1 nM.
Then `C[C@@H](F)c1nc2ccc(C(F)(F)F)nc2n1-c1cc(Cl)c2[nH]ncc2c1` (single isomer, unassigned) [Example 408, (*R)-3-(7-Chloro-1H-indazol-5-yl)-2-(1-fluoroethyl)-5-(trifluoromethyl)-3H-imidazo[4,5-b]pyridine], with 0.1 nM; and `C[C@H](F)c1nc2ccc(C(F)(F)F)nc2n1-c1cc(Cl)c2[nH]ncc2c1` (single isomer, unassigned) [Example 409, (*S)-3-(7-Chloro-1H-indazol-5-yl)-2-(1-fluoroethyl)-5-(trifluoromethyl)-3H-imidazo[4,5-b]pyridine], with 0.0794 nM; and `FC(F)(F)c1ccc2nc(-c3ccccc3)n(-c3ccc4[nH]ncc4c3)c2n1` [Example 1, 3-(1H-Indazol-5-yl)-2-phenyl-5-(trifluoromethyl)-3H-imidazo[4,5-b]pyridine], with 0.398 nM.
On to `c1ccc(-c2nc3cccnc3n2-c2ccc3[nH]ncc3c2)cc1` [Example 2, 3-(1H-Indazol-5-yl)-2-phenyl-imidazo[4,5-b]pyridine], for which the IC50 was 50.1 nM.
Then `Cc1ccc2nc(-c3ccccc3)n(-c3ccc4[nH]ncc4c3)c2n1` [Example 3, 3-(1H-Indazol-5-yl)-5-methyl-2-phenyl-imidazo[4,5-b]pyridine], with 0.794 nM; and `Cc1ccc2nc(-c3ccc(F)cc3)n(-c3ccc4[nH]ncc4c3)c2n1` [Example 4, 2-(4-Fluorophenyl)-3-(1H-indazol-5-yl)-5-methyl-imidazo[4,5-b]pyridine], with 1 nM; and `COc1ccc2nc(-c3ccc(F)cc3)n(-c3ccc4[nH]ccc4c3)c2n1` [Example 5, 2-(4-Fluorophenyl)-3-(1H-indol-5-yl)-5-methoxy-imidazo[4,5-b]pyridine], with 39.8 nM.
Take `COc1ccc2nc(-c3ccc(F)cc3)n(-c3ccc4c(c3)CC(=O)N4)c2n1` [Example 6, 5-[2-(4-Fluorophenyl)-5-methoxy-imidazo[4,5-b]pyridin-3-yl]indolin-2-one]: the IC50 is 39.8 nM.
Then `Fc1ccc(-c2nc3ccc(Cl)nc3n2-c2ccc3[nH]ncc3c2)cc1` [Example 7, 5-Chloro-2-(4-fluorophenyl)-3-(1H-indazol-5-yl)imidazo[4,5-b]pyridine], with 2 nM; and `Cc1ccc2nc(-c3ccccc3Cl)n(-c3ccc4[nH]ncc4c3)c2n1` [Example 8, 2-(2-Chlorophenyl)-3-(1H-indazol-5-yl)-5-methyl-imidazo[4,5-b]pyridine], with 63.1 nM.
Then `Cc1cnc2c(c1)nc(-c1ccccc1)n2-c1ccc2[nH]ncc2c1` [Example 9, 3-(1H-Indazol-5-yl)-6-methyl-2-phenyl-imidazo[4,5-b]pyridine], with 25.1 nM; and `Clc1ccc2nc(-c3ccccc3)n(-c3ccc4[nH]ncc4c3)c2n1` [Example 10, 5-Chloro-3-(1H-indazol-5-yl)-2-phenyl-imidazo[4,5-b]pyridine], with 1 nM; and `Clc1ccc2nc(C3CCCC3)n(-c3ccc4[nH]ncc4c3)c2n1` [Example 11, 5-Chloro-2-cyclopentyl-3-(1H-indazol-5-yl)imidazo[4,5-b]pyridine], with 10 nM.
Then `Cc1ccc2nc(-c3ccccc3)n(-c3ccc4c(cnn4C(=O)OC(C)(C)C)c3)c2n1` [Example 12, tert-Butyl 5-(5-methyl-2-phenyl-imidazo[4,5-b]pyridin-3-yl)indazole-1-carboxylate], with 20 nM; and `FC(F)(F)c1ccc2nc(-c3ccccc3)n(-c3ccc4[nH]ccc4c3)c2n1` [Example 13, 3-(1H-Indol-5-yl)-2-phenyl-5-(trifluoromethyl)imidazo[4,5-b]pyridine], with 2 nM.

In general, IC50 refers to the concentration that gives 50% inhibition.
